Source: US20230310432A1 (JULIUS-MAXIMILIANS-UNIVERSITÄT WÜRZBURG, priority 2017, published 2023)

Key:
[1] = tested on: CD8+ T cells expressing a SLAMF7 CAR with CD28 costimulatory domain; assay: Bioluminescence-based cytotoxicity assay, K562/SLAMF7 target cells; assay type: cell-based, human
[2] = tested on: CD8+ T cells expressing a ROR1 CAR with 4-1BB costimulatory domain; assay: Cytokine production and secretion (IFN-γ, IL-2 ELISA), co-culture with K562/ROR1; assay type: cell-based, human; details: dasatinib ≥50 nM; 20 h
Procedure: (§1) Cytokine secretion: 5×10^4 T-cells were plated in duplicate or triplicate wells with target cells at an E:T ratio of 4:1 (K562/ROR1, K562/CD19, RCH-ACV), and IFN-γ and IL-2 were measured by ELISA, or cytokine panels were measured by multiplex cytokine immunoassay (Luminex) in supernatant removed after 20-h incubation. Specific cytokine production was calculated by subtracting the amount of cytokines released by unstimulated CAR-T cells from the amount of cytokines released after antigen-specific stimulation. The remaining cytokine secretion in % as shown in the diagrams is normalized to CAR-T cells in the absence of dasatinib-treatment (100%).
CAR-T cells were co-cultured with K562 that the inventors had transduced with either CD19 (for testing CD19 CAR-T cells) or ROR1 (for testing ROR1 CAR-T cells). Dasatinib was added to the assay medium at the beginning of the co-culture assay. ELISA was performed to detect IFN-γ and IL-2 in supernatant removed from the co-culture.

[3] = tested on: CD4+ T cells expressing a CD19 CAR with CD28 costimulatory domain; assay: Multiplex cytokine analysis, co-culture with K562/CD19; assay type: cell-based, human; details: dasatinib ≥25 nM; 20 h; compared to non-dasatinib treated CAR-T cells
Procedure: A multiplex cytokine analysis was performed in supernatant removed from the co-culture.

[4] = tested on: NFAT/GFP reporter in CD8+ CD19 CAR/4-1BB T cells; assay: NFAT/GFP reporter assay during sequential stimulation; assay type: cell-based, human; details: day 1
ZAP70 at tyrosine 319 = assay: Quantitative Western blot of phosphorylation in CD8+ CD19 CAR/4-1BB T cells; assay type: cell-based, human; details: 100 nM dasatinib; co-culture with RCH-ACV
[5] = tested on: CD4+ T cells expressing a SLAMF7 CAR with 4-1BB costimulatory domain; assay: Cytokine ELISA, co-culture with K562/SLAMF7; assay type: cell-based, human; details: dasatinib ≥20 nM; 20 h
Procedure: as §1
(§2) The inventors prepared SLAMF7-specific CD8^+ and CD4^+ CAR-T cell lines from n=2 healthy donors. In each of the T-cell lines, the inventors enriched CAR-expressing T cells to >90% purity using the EGFRt-transduction marker. […] CAR-T cells were co-cultured with K562 that the inventors had transduced with SLAMF7. Dasatinib was added to the assay medium at the beginning of the co-culture assay. ELISA was performed to detect IFN-γ and IL-2 in supernatant removed from the co-culture.

[6] = tested on: CD8+ T cells expressing a SLAMF7 CAR with 4-1BB costimulation; assay: Cytokine ELISA, co-culture with K562/SLAMF7; assay type: cell-based, human; details: 20 h
Procedure: as §1, §2

[7] = tested on: CD4+ T cells expressing a SLAMF7 CAR with CD28 costimulatory domain; assay: Cytokine ELISA, co-culture with K562/SLAMF7; assay type: cell-based, human; details: dasatinib 20 nM; 20 h
Procedure: as §1, §2

[8] = tested on: CD8+ T cells expressing a SLAMF7 CAR with CD28 costimulatory domain; assay: Cytokine ELISA, co-culture with K562/SLAMF7; assay type: cell-based, human; details: 20 h
Procedure: as §1, §2

[9] = tested on: activated CD19 CAR/CD28-T cells; Raji tumor cells; assay: Raji tumor burden by bioluminescence imaging, function ON/OFF/ON (Example 8); assay type: in vivo, NSG mice
Procedure: The Institutional Animal Care and Use Committee of UKW approved all mouse experiments. NOD.Cg-Prkdc^scidIl2rg^tm1wjl/SzJ (NSG) mice (female, 6-8 week old) were purchased from Charles River (Sulzfeld, Germany). Mice were inoculated with 1×10^6 Raji/ffluc_GFP tumor cells via tail vein injection (i.v.). Mice were treated with 5×10^6 CAR-modified or control untransduced T-cells (CD4:CD8 ratio=1:1) via tail vein injection (i.v.). […] Tumor burden and distribution was analyzed by serial bioluminescence imaging on an IVIS Lumina imager (Perkin Elmer, Baesweiler, Germany): mice received i.p. injections of 0.3 mg/g luciferin and images were acquired 10 minutes after luciferin injection in small binning mode at an acquisition time of 1 s to 1 min to obtain unsaturated images. Data were analyzed using LivingImage Software (Caliper) and the average radiance (or photon flux) analyzed in regions of interest that encompassed the entire body of each individual mouse. Mice were sacrificed at the end of the experiment and human T cells in bone marrow, peripheral blood and spleen were analyzed by flow cytometry. The presence of (human) cytokines in serum was measured using multiplex cytokine analysis. […]
Raji tumor burden was determined by bioluminescence imaging on day 7, day 10, day 12, day 14, day 17, and subsequently, once a week.

[10] = tested on: CD8+ T cells expressing a CD19 CAR with 4-1BB costimulation; assay: CFSE proliferation assay, co-culture with K562/CD19; assay type: cell-based, human; details: 72 h
[11] = tested on: NFAT-inducible GFP reporter gene in CD8+ CD19 CAR/4-1BB T cells; assay: NFAT-inducible GFP reporter assay; assay type: cell-based, human; details: 100 nM dasatinib; stimulation with Raji, 24 h; 1211 without dasatinib, 117 unstimulated
Procedure: T cells (co-)expressing the NFAT inducible GFPwt reporter gene were co-cultured in the presence of 10 U IL-2 with irradiated (80 Gy) Raji or K562 tumor cells at an E:T ratio of 5:1 or without target cells. […] After 24 hours of co-culture, cells were labeled with anti-CD3 mAb, and analyzed by flow cytometry to assess GFP expression in T cells.
The inventors prepared CD8^+ CD19 CAR/4-1BB T cells, that the inventors transduced to co-express an NFAT-inducible GFP reporter gene.

Cc1nc(Nc2ncc(C(=O)Nc3c(C)cccc3Cl)s2)cc(N2CCN(CCO)CC2)n1 [dasatinib]
specific lysis of target cells ([1]; dasatinib 20, 40 and 60 nM, t=6 h, 67% by non-dasatinib treated): less than 21%
residual specific lysis of target cells ([1]; dasatinib 20, 40 and 60 nM, t=12 h, 85% by non-dasatinib treated): less than 35%
specific lysis of target cells ([1]; dasatinib ≥80 nM, any given time point, 85% by non-dasatinib treated at t=12 h): less than 3%
residual IFN-γ production compared to non-dasatinib treated CAR-T cells [2]: less than 3%
residual IL-2 production compared to non-dasatinib treated CAR-T cells [2]: less than 8.5%
reduction of production and secretion of GM-CSF, IFN-γ, IL-2, IL-4, IL-5, IL-6, IL-8 [3]: > 95%
GFP MFI ([4]; dasatinib added one hour after assay set up, 1949 in untreated stimulated CAR-T cells): 734
GFP MFI ([4]; dasatinib present from the beginning): 137
phosphorylation compared to CAR-T cells co-cultured in the absence of dasatinib (ZAP70 at tyrosine 319): 11.61%
residual IFN-γ [5]: less than 0.5%
residual specific IFN-γ production ([6]; dasatinib 20 nM): less than 15%
residual specific IFN-γ production ([6]; dasatinib ≥40 nM): less than 0.8%
residual IFN-γ [7]: less than 1.2%
residual specific IFN-γ production ([8]; dasatinib ≥20 nM): less than 4%
residual specific IFN-γ production ([8]; dasatinib ≥40 nM): less than 0.2%
mean reduction of BLI ([9]; between day 12 and 14, previously treated with dasatinib): 71%
median BLI ([9]; day 17, CAR/Dasa, 966 CAR/vehicle, 839 CAR alone): 507
remaining proliferation ([10]; 0.1 μM dasatinib): < 5.6%
residual proliferation compared to non-dasatinib treated CAR-T cells ([10]; dasatinib ≥3.125 nM): less than 80%
residual proliferation compared to non-dasatinib treated CAR-T cells ([10]; dasatinib ≥12.5 nM): less than 45%
residual proliferation compared to non-dasatinib treated CAR-T cells ([10]; dasatinib ≥50 nM): less than 8%
mean fluorescence intensity (MFI) of GFP expression [11]: 129
